Data set [1] concerns rats with hemi-cervical spinal cord contusion (SCI). The data set is described as follows: SCI model: extravasated blood in cord (tissue blood). It counts as in vivo, rat. Particulars: for PHN: following SCI (summary). As to the method: (§1) SCI injury model. This study was performed in accordance with the guidelines of the Institutional Animal Care and Use Committee. Adult female Long-Evans rats (275-350 gm) were anesthetized (Ketamine, 60 mg/kg plus Xylazine, 7.5 mg/kg, i.p.). The dura at C4-5 was exposed via a left hemilaminectomy. A hemi-cervical spinal cord contusion was created using a blunt force impactor (1.3-mm impactor head driven by a 10 gm weight dropped vertically 25 mm) (Soblosky et al., 2001; Gensel et al., 2006). After SCI, animals were given 10 ml of glucose-free normal saline s.q. Rectal temperature was maintained at ˜37° C. using a servo-controlled warming blanket.
(§2) For in vivo gene suppression of SUR1, we used oligodeoxynucleotides that were phosphorothioated at 4 distal bonds to protect against endogenous nucleases (35).
Tissue blood. Rats were sacrificed at various times after SCI (n=5-11 rats/group), were perfused with heparinized saline to remove intravascular blood, and 5-mm segments of cord encompassing the lesion were homogenized and processed as described (Choudhri et al., 1997).

Data set [2] shares this test system. Briefly: SCI model: lesion size. In kind it is in vivo, rat. Particulars: following SCI; compared to controls (summary). As for the experimental part:
as §1, with “blanket. Blood gases and serum glucose 10-15 min post-SCI were: pO2, 95±6 mm Hg; pCO2, 46±3 mm Hg; pH, 7.33±0.01; glucose 258±17 mg/dl in controls and pO2, 96±7 mm Hg; pCO2, 45±2 mm Hg; pH, 7.37±0.01; glucose 242±14 mg/dl in glibenclamide-treated animals.” for “blanket.”
Drug delivery. […] During the course of the project, slightly different formulations of drug were used, with the best results obtained using stock solutions made by placing 50 mg (or 25 mg) of drug into 10 ml DMSO, and infusion solutions made by placing 400 μl (or 800 μl) stock into 4.6 ml (or 4.2 ml) unbuffered saline (0.9% NaCl) and adjusting the pH to ˜8.5 using 0.1 N NaOH.
Lesion size. At 7 d post-SCI, cords were paraffin sectioned and stained with H&E. Lesion volumes were calculated from lesion areas measured on serial sections every 250 μm.
(§3) Immunohistochemistry. Cryosections were immunolabeled (Chen et al., 2003; Simard et al., 2006) using primary antibodies directed against SUR1 (Santa Cruz, C-16; 1:200; 1 h at RT, 48 h at 4° C.), SUR2 (Santa Cruz, H-80; 1:200; 1 h at RT, 48 h at 4° C.), GFAP (Sigma, C-9205; 1:500), and vimentin (Sigma, monoclonal CY3 conjugated; 1:100). Quantitative immunofluorescence was performed as described (Gerzanich et al., 2003).

The test system is the same in data set [3]. Briefly: SCI model: neurobehavioral assessment (inclined plane, paw placement, rearing). In kind it is in vivo, rat. As to the method: as §1, §2
Neurobehavioral Assessment. All measurements were performed by blinded evaluators. Performance on the inclined plane was evaluated as described (Rivlin and Tator, 1977). To assess paw placement and vertical exploration (rearing) (Nikulina et al., 2004) animals were videotaped while in a translucent cylinder (19×20 cm). Rearing was quantified as the number of seconds spent with both front paws elevated above shoulder-height during a 3-min period of observation.

Data set [4] relates to SUR1. The data set is described as follows: SUR1 knock-down in gliotic capsule (gelatin sponge implant), Western blot and astrocyte patch clamp. It counts as in vivo, rat. The settings on record: vs Scr-ODN. As for the experimental part:
To validate the antisense strategy, it was first implemented in the model that was originally used for the discovery of the NCCa-ATP channel, wherein a gelatin sponge is implanted into the parietal lobe to stimulate formation of a gliotic capsule (Chen and Simard, 2001). Here, animals were also fitted with mini-osmotic pumps that delivered oligodeoxynucleotides (ODN), either antisense (AS) or scrambled (Scr), continuously for 7 d into the injury site.
SUR1 knock-down in astrocytes was performed in triplicates by implanting rats with gelatin sponges in the parietal lobe to induce formation of a gliotic capsule containing reactive astrocytes that express the SUR1-regulated NCCa-ATP channel (Chen and Simard, 2001; Chen et al., 2003). At the same time, they were implanted with mini-osmotic pumps (Alzet, model 2002; 14-day pump) placed in the dorsal thoracolumbar region that contained ODN (711 μg/ml delivered @ 0.5 μl/h, yielding 1500 picomoles/day), with the delivery catheter placed directly into the site of the gelatin sponge implant in the brain. Animals were infused with Src-ODN or AS-ODN, as above but not phosphorothioated. After 10-14 days, the gelatin sponge plus encapsulating gliotic tissues were harvested and processed either for Western immunoblots or to obtain fresh reactive astrocytes for patch clamp electrophysiology. […]
(In general: In western blotting, separated proteins are transferred to a membrane and probed.)

For data set [5], the system named is SUR1. Briefly: SCI model: SUR1 immunolabeling of cord after i.v. ODN. It counts as in vivo, rat. As for the experimental part: as §1, with “blanket. Blood gases and serum glucose 10-15 min post-SCI were: pO2, 95±6 mm Hg; pCO2, 46±3 mm Hg; pH, 7.33±0.01; glucose 258±17 mg/dl in controls and pO2, 96±7 mm Hg; pCO2, 45±2 mm Hg; pH, 7.37±0.01; glucose 242±14 mg/dl in glibenclamide-treated animals.” for “blanket.”
For in vivo gene suppression of SUR1, we used oligodeoxynucleotides that were phosphorothioated at 4 distal bonds to protect against endogenous nucleases (35). Within a few min of SCI, mini-osmotic pumps (Alzet 2002, 0.5 μl/h; Durect Corporation) with jugular vein catheters were implanted that delivered either scrambled sequence ODN (Scr-ODN) (5′-[…]-3′; SEQ ID NO:1) or antisense ODN (AS-ODN) (5′-[…]-3′; SEQ ID NO:2) (Yokoshiki et al., 1999) in PBS at a rate of 1 mg/rat/24 h.
as §3

Data set [6] has as its target SUR1-regulated NCCa-ATP channels (Rattus norvegicus, UniProt Q09429). Particulars: read-out: EC50, block of NCCa-ATP channel; cited from earlier work.
Data set [7] has as its target T1, SUR1-regulated NCCa-ATP channel in human aortic endothelial cells (Homo sapiens, UniProt Q09428).
T1 construct: host or cells: human aortic endothelial cells cultured under hypoxia
The data set is described as follows: Perforated-patch whole-cell recording of endothelial cells, channel activation by diazoxide. It counts as cell-based. As for the experimental part:
Patch clamp of endothelial cells was performed using a nystatin-perforated patch technique, to maintain the metabolic integrity of the cells. The identity of the activated channel can be assessed by measurement of the “reversal potential”, the potential at which an ion channel current reverses from inward to outward. With physiologically relevant concentrations of ions intracellularly and extracellularly (high potassium inside, high sodium outside), the reversal potential can unambiguously distinguish between a K^+ channel current such as KATP, which reverses negative to −50 mV and a non-selective cation channel current such as NCCa-ATP, which reverses near 0 mV.
Cell culture. Endothelial cell cultures from human brain microvessels, human aorta (ScienCell Research Laboratories), and murine brain microvessels (bEnd.3; ATCC), were grown at low density using media and supplements recommended by suppliers.

For data set [8], the target named is native and recombinant β-cell KATP channels (Homo sapiens, UniProt Q09428). The settings on record: read-out: IC50, block of native and recombinant β-cell KATP channels; cited from earlier work.
Where [9] appears, read: 1 d post-SCI, ODN i.v., vs Scr-ODN.
Setting [10] is: repaglinide 200 ng/h s.q., n=3-8/group.

pEC50, pIC50: −log10 of the molar value.

T1 sequence (Q09428 whole entry): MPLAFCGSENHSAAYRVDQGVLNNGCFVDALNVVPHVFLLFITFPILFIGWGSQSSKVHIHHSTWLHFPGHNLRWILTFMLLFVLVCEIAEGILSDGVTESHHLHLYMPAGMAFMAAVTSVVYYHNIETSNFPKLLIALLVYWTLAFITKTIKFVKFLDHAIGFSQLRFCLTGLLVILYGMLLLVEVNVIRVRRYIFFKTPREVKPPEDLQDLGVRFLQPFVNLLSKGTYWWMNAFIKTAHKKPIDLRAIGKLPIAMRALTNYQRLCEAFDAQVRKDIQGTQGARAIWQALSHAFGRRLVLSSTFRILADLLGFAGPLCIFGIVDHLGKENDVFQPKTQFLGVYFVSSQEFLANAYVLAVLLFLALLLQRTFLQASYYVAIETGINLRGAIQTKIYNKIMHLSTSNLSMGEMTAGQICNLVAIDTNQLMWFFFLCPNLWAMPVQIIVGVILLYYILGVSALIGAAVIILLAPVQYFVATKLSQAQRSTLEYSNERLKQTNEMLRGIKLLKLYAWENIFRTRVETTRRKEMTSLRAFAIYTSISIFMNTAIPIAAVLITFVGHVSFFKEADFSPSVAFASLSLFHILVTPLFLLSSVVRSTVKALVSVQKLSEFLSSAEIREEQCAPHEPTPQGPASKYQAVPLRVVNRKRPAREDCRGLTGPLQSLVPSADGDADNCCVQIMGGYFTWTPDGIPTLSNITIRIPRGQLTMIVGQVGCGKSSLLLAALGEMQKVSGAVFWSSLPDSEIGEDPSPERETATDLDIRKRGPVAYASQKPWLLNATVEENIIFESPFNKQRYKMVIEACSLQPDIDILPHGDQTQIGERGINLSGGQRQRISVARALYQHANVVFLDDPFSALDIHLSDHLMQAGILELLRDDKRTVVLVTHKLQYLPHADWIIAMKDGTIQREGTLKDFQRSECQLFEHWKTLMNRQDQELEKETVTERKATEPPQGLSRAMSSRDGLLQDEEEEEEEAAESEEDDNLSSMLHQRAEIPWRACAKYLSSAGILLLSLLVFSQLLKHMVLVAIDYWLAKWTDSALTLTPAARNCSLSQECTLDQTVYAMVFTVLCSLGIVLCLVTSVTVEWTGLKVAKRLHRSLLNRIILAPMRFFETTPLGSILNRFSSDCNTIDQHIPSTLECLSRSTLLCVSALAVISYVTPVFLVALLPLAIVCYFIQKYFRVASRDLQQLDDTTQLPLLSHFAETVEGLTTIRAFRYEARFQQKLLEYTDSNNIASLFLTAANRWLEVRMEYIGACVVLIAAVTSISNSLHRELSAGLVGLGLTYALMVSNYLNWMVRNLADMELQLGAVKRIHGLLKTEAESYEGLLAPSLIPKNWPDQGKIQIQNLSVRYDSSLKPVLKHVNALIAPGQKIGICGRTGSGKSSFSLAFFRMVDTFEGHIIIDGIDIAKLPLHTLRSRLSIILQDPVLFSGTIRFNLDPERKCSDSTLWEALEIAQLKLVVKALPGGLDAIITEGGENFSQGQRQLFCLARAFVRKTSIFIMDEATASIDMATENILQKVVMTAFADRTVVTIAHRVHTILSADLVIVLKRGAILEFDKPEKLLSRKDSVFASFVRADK
T1 sequence (Q8TD43 whole entry partner): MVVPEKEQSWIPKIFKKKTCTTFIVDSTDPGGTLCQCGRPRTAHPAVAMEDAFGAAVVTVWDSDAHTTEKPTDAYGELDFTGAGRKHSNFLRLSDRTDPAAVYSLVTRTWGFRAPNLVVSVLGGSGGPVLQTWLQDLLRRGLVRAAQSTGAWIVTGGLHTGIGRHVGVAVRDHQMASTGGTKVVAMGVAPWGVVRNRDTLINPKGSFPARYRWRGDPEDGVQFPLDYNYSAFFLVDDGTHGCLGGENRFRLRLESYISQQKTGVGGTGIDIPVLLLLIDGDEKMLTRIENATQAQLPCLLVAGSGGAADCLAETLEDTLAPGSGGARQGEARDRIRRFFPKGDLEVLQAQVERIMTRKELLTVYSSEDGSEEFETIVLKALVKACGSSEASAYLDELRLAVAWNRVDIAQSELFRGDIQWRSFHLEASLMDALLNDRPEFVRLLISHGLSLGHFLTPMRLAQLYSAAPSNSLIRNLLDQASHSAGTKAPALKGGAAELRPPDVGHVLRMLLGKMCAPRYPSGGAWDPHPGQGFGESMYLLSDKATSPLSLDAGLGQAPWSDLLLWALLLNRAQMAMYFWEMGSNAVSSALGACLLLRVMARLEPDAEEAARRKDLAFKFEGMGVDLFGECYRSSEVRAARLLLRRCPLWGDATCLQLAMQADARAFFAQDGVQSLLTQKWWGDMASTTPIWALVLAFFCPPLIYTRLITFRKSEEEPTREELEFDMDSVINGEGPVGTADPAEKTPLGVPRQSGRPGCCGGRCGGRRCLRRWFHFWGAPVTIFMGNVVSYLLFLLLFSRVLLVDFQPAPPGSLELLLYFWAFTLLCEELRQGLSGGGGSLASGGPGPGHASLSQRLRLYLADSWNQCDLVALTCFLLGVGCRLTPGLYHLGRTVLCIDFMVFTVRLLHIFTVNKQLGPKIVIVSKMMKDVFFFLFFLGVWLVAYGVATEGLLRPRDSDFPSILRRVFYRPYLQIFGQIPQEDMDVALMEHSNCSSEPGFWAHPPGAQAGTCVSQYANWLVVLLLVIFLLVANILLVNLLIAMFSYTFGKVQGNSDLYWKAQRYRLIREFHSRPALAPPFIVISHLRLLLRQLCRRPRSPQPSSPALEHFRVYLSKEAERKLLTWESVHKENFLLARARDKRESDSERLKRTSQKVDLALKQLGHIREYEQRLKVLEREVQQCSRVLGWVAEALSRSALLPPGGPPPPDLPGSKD
Chain of native and recombinant β-cell KATP channels (Q09428 whole entry): as the sequence (Q09428 whole entry) above
Chain of native and recombinant β-cell KATP channels (Q14654 whole entry partner): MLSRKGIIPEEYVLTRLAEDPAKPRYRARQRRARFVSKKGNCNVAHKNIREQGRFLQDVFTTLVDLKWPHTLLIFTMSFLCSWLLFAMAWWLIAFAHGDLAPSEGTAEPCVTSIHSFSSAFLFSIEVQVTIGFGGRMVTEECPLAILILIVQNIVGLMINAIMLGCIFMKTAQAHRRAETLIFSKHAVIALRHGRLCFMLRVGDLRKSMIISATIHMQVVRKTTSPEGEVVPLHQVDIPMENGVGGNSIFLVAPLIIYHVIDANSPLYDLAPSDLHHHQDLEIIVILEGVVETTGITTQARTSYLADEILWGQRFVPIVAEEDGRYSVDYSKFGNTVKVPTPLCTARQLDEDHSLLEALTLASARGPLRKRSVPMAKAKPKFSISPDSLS

Take “5′-GGCCGAGTGGTTCTCGGT-3′ (DNA, backbone and methylation of C not given here; phosphorothioate at 4 distal bonds) [AS-ODN]”: in data set [1] (setting [9]), the “blood in cord homogenates (effect)” value is recorded as “reduced”. Further, the PHN entry in data set [1] is “significantly reduced”. Moreover, the “reduction in lesion volume” value in data set [2] is 3 fold. In data set [3] (setting [9]), the “performance in vertical exploration” value is “significantly better performance” and the “performance on the inclined plane” value is “significantly better performance”. The “SUR1 protein in gliotic capsule (Western blot)” value in the data set with SUR1 [4] (ODN infused into injury site) is on record as “significant reduction”. For the same compound, the “astrocyte depolarization on ATP depletion by Na azide” value in the data set on SUR1 [4] (astrocytes from gliotic capsule) was “depolarized only slightly or not at all”. For the same compound, in the data set with SUR1 [5] (6 h post-SCI, ODN i.v. 1 mg/rat/24 h, vs controls), the “SUR1 immunolabeling of cord” value was “significantly less immunolabeling”. In the data set with SUR1 [5] (post-SCI, ODN i.v.), the “normal expression of SUR1 in dorsal horn cells” value is given as “did not affect”. Also, the “necrotic void beneath impact site” value in the data set on SUR1 [5] (post-SCI, ODN i.v., vs Scr-ODN) is given as “no necrotic void was evident”.
On to `Nc1ncnc2c1ncn2[C@@H]1O[C@H](COP(=O)(O)OP(=O)(O)OP(=O)(O)O)[C@@H](O)[C@H]1O` [ATP], for which the negative logarithm of the EC50 (pEC50) (usually the negative decadic logarithm of the EC50, by convention in mol/L) in data set [6] was 6.10.
`CC1=NS(=O)(=O)c2cc(Cl)ccc2N1` [diazoxide]: the “current activated by diazoxide” value is “activated an ohmic current that reversed near 0 mV” in data set [7] (endothelial cells cultured under hypoxic conditions) and “either had no effect or, in half of the cells, activated an outwardly rectifying current” in data set [7] (endothelial cells cultured under normoxic conditions).
Take `CCOc1cc(CC(=O)N[C@@H](CC(C)C)c2ccccc2N2CCCCC2)ccc1C(=O)O` [repaglinide]: the “blood in cord homogenates” value in data set [1] (1 d post-SCI, repaglinide 200 ng/h s.q., 5-8 rats/group) is 1.2 ± 0.1 µL. Moreover, the PHN entry in data set [1] is given as “significantly reduced”. In addition, the “reduction in lesion volume” value in data set [2] is recorded as 3 fold. The compound also gave a vertical exploration in data set [3] (repaglinide 200 ng/h s.q., 5-6 rats/group) of 27 ± 6 s. In data set [3] (setting [10]), the “inclined plane, head down” value is reported as 47±3 degrees and the “inclined plane, head up” value turned out to be 62±2 degrees. For the same compound, in data set [8], the pIC50 (commonly −log10 of the IC50, conventionally taken in molar units) was 8.15 to 9.05.

Values taken from US9375438B2, “Inhibitors of NCCa-ATP channels for therapy” (University of Maryland, Baltimore, priority 2007, dated 2016).
